The source of these data is patent US20080234332A1, “RAF KINASE INHIBITORS CONTAINING A ZINC BINDING MOIETY” (priority 2007, published 2008).

Holding throughout (format): biochemical
For one experiment, the system named is HDAC. In words: HDAC fluorimetric assay kit (HeLa nuclear extract). Conditions: read-out: HDAC IC50 grade. The procedure:
HDAC inhibitors were screened using an HDAC fluorimetric assay kit (AK-500, Biomol, Plymouth Meeting, Pa.). […] Each assay was setup as follows: Defrosted all kit components and kept on ice until use. Diluted HeLa nuclear extract 1:29 in assay buffer (50 mM Tris/Cl, pH 8.0, 137 mM NaCl, 2.7 mM KCl, 1 mM MgCl2). Prepared dilutions of Trichostatin A (TSA, positive control) and tested compounds in assay buffer (5× of final concentration). Diluted Fluor de LysTM Substrate in assay buffer to 100 uM (50 fold=2× final). Diluted Fluor de LysTM developer concentrate 20-fold (e.g. 50 μl plus 950 μl assay buffer) in cold assay buffer. Second, diluted the 0.2 mM Trichostatin A 100-fold in the 1× Developer (e.g. 10 μl in 1 ml; final Trichostatin A concentration in the 1× Developer=2 μM; final concentration after addition to HDAC/Substrate reaction=1 μM). Added assay buffer, diluted trichostatin A or test inhibitor to appropriate wells of the microtiter plate. Added diluted HeLa extract or other HDAC sample to all wells except for negative controls. Allowed diluted Fluor de LysTM Substrate and the samples in the microtiter plate to equilibrate to assay temperature (e.g. 25 or 37° C. Initiated HDAC reactions by adding diluted substrate (25 μl) to each well and mixing thoroughly. Allowed HDAC reactions to proceed for 1 hour and then stopped them by addition of Fluor de LysTM Developer (50 μl). Incubated plate at room temperature (25° C.) for 10-15 min. Read samples in a microtiter-plate reading fluorimeter capable of excitation at a wavelength in the range 350-380 nm and detection of emitted light in the range 440-460 nm.
(§1) The following TABLE B lists compounds representative of the invention and their activity in HDAC, VEGFR2 and RAF assays.

A further experiment concerns the target PDGFRβ (Homo sapiens, UniProt P09619). Briefly: PDGFRβ kinase inhibition (Table B). The conditions noted are these: read-out: PDGFRβ IC50 grade.
A further experiment addresses cKit (Homo sapiens, UniProt P10721). Briefly: cKit kinase inhibition (Table B). The conditions noted are these: read-out: cKit IC50 grade.
The next experiment has as its target T1, B-Raf (Homo sapiens, UniProt P15056).
T1 construct: purchased Upstate 17-359
In words: Raf kinase assay (B-Raf kit, MEK-1 substrate, dot blot). Conditions: 250 μM ATP; read-out: B-Raf IC50 grade. The method, then:
(§2) The Raf kinase assay was performed by following the protocol of Raf kinase assay kit (B-Raf, Upstate, catalog# 17-359; C-Raf, Upstate, catalog# 17-360) with modifications. Briefly, assay buffer, ATP, substrate and Raf kinase were mixed in a 96 well assay plate. The final kinase assay mixture contained 20 mM MOPS, pH7.2, 25 mM β-glycerol phosphate, 5 mM EGTA, 1 mM sodium orthovanadate, 1 mM DTT, 250 μM ATP and 37.5 mM magnesium chloride, 0.1 μg/well of Raf kinase, and 1 μg/well of MEK-1 substrate protein. Assay samples were incubated for 30 min at room temperature. The kinase reaction was stopped by adding EDTA, pH8 to a final concentration of 25 mM. A 10 μl of the reaction sample was spotted onto nitrocellulose filter and dot blot was performed by adding 1 μg/ml of anti-phospho-MEK-1 antibody in the blocking solution (Licor Bioscience, catalogue # 927-40000). The nitrocellulose filter was subsequently incubated with secondary IRDye 800CW goat anti-rabbit antibody (Licor Bioscience, catalogue # 926-32211) before reading the signal on an Odyssey imager (Licor Bioscience).
as §1

The next experiment addresses T2, VEGFR2 (Homo sapiens, UniProt P35968).
T2 construct: GST (N); His6 (N); Thrombin cleavage site (N); purchased Cell Signaling Technologies; host or cells: baculovirus expression system
Briefly: HTScan VEGFR2 Kinase Assay (DELFIA). Conditions: 200 μM ATP; read-out: VEGFR2 IC50 grade. The method, then: The ability of compounds to inhibit VEGFR2 kinase activity was assayed using HTScan™ VEGFR2 Kinase Assay Kits (Cell Signaling Technologies, Danvers, Mass.). […] The protein was purified by one-step affinity chromatography using glutathione-agarose.
Immediately transfer enzyme from −80° C. to ice. Allowed enzyme to thaw on ice. […] Returned immediately to ice. […] Incubated reaction plate at room temperature for 30 minutes. […] Added 100 μl/well primary antibody. Incubated at room temperature for 60 minutes. […] Added 100 μl/well diluted antibody. Incubated at room temperature for 30 minutes. […] Incubated at room temperature for 5 minutes.
as §1

For a further experiment, the target named is C-Raf (Homo sapiens, UniProt P04049). Briefly: Raf kinase assay (C-Raf kit, MEK-1 substrate, dot blot). Conditions: 250 μM ATP; read-out: C-Raf IC50 grade. The method, then: as §2, §1
Chain of C-Raf (P04049 whole entry Y340D/Y341D, form open): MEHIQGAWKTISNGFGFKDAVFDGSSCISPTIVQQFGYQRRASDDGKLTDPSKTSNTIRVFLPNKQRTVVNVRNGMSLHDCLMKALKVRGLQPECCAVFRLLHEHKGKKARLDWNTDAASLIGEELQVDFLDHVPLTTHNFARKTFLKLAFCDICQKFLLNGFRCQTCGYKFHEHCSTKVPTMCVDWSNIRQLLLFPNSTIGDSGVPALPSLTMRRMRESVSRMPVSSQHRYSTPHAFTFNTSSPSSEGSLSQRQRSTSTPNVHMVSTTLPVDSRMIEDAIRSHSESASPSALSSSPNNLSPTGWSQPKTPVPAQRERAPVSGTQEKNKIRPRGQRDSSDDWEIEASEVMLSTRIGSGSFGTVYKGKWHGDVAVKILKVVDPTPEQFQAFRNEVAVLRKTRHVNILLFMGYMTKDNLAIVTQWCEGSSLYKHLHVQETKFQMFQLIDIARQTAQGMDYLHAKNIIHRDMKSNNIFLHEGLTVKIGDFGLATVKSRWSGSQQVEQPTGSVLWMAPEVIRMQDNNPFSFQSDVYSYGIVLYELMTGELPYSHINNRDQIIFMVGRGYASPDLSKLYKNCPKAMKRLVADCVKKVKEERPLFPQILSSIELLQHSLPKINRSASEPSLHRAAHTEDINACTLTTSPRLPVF

pIC50: −log10 of the molar value. Where only a bound is given, the exact number is not on record here.

Chain of cKit (P10721 26-976): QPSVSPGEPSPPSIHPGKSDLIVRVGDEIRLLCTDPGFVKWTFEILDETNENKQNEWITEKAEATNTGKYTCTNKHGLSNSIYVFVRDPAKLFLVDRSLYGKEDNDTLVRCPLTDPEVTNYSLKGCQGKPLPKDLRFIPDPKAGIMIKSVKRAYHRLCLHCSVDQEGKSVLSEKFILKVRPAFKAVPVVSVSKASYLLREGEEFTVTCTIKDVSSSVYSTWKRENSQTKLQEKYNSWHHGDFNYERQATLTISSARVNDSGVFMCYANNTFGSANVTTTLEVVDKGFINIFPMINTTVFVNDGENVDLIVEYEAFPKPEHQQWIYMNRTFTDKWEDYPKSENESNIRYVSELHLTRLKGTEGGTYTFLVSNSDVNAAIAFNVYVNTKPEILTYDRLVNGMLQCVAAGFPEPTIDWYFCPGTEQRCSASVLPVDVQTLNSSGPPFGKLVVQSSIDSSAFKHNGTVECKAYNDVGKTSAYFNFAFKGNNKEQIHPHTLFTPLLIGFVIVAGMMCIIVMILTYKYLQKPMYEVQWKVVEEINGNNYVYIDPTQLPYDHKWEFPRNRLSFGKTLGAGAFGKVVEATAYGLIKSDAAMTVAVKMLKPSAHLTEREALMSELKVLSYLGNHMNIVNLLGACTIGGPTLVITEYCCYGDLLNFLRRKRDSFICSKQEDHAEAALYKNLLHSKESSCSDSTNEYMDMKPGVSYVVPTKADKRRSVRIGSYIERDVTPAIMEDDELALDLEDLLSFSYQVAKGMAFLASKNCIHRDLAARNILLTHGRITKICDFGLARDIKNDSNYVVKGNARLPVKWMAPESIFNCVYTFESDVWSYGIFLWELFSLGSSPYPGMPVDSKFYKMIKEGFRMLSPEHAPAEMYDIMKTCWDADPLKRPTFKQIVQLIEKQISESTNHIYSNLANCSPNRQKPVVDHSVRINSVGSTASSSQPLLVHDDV
T2 sequence (P35968 805-1356): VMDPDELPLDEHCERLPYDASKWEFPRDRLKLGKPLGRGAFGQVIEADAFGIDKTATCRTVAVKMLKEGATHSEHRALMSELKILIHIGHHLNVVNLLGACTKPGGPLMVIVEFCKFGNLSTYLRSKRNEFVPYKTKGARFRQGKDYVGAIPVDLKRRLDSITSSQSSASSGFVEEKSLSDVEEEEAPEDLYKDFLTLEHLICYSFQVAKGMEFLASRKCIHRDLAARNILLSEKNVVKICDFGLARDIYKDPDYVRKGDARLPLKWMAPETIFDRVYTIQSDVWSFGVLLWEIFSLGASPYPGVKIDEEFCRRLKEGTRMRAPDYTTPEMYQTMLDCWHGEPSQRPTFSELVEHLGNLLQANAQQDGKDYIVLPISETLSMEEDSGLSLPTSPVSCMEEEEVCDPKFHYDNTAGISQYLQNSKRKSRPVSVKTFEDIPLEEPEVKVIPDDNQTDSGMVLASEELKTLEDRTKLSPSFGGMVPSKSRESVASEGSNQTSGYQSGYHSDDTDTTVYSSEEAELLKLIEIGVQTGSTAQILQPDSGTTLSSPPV
Chain of PDGFRβ (P09619 33-1106, species assumed): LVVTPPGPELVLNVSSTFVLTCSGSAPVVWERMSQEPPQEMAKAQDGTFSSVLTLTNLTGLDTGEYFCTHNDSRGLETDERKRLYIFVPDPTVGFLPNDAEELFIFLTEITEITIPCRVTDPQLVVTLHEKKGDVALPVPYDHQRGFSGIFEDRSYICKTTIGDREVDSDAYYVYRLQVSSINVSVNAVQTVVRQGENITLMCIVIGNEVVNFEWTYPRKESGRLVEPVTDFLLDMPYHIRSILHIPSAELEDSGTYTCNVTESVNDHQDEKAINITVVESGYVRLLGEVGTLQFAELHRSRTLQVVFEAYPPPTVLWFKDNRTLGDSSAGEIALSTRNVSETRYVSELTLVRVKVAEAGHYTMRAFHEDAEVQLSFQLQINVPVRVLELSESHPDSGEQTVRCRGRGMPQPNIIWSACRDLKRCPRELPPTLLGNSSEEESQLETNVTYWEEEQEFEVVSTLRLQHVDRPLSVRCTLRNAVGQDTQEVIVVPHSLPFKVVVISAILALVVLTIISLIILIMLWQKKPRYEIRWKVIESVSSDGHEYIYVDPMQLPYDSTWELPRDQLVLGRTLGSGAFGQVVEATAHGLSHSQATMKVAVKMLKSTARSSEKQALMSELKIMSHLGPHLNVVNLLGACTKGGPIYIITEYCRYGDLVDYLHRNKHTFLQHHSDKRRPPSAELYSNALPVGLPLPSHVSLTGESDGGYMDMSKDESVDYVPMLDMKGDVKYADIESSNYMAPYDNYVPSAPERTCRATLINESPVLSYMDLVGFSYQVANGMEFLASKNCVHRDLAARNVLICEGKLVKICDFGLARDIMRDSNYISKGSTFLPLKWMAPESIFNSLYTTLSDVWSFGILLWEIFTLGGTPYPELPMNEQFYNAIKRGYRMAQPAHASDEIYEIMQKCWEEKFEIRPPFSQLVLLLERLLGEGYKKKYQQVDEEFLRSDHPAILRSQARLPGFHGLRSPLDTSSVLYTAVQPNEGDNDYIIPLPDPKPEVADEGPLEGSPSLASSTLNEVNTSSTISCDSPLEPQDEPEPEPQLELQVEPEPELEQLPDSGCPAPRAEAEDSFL
T1 sequence (P15056 whole entry): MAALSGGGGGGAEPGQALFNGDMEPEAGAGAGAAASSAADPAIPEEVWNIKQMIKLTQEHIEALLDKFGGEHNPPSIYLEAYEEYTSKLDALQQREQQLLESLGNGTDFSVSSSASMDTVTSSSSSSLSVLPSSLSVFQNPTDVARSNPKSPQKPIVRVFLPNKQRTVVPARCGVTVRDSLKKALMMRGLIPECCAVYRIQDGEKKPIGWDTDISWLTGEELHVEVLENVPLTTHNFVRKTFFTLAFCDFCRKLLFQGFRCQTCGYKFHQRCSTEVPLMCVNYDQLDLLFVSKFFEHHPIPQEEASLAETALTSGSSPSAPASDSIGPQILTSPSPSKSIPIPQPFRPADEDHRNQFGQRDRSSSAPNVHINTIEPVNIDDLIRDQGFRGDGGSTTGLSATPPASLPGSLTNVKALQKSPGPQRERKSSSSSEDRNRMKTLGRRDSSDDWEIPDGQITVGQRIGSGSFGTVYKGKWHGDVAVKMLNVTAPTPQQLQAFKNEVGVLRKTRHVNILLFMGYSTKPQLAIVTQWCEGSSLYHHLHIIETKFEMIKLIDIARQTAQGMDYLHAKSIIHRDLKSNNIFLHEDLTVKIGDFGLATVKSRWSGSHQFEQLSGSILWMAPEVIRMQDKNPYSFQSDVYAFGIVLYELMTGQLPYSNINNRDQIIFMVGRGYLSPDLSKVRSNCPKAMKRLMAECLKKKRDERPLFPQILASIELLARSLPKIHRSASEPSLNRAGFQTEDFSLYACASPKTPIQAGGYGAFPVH

For the molecule `O=C(CCCCCNC(=O)c1cc(Oc2ccc(NC(=O)Nc3ccc(Cl)c(C(F)(F)F)c3)cc2)ccn1)NO` [Compound 5, 4-(4-(3-(4-Chloro-3-(trifluoromethyl)phenyl)ureido)phenoxy)-N-(6-(hydroxyamino)-6-oxohexyl)picolinamide], the negative-log IC50 (pIC50) in the experiment on HDAC was 6.00 to 7.00; at PDGFRβ, 6.00 to 7.00; on cKit it was over 7.00; at B-Raf it was 5.00 to 6.00; at VEGFR2, over 7.00; on C-Raf, 5.00 to 6.00.

As to `O=C(CCCCCCC(=O)Nc1cc(Oc2ccc(NC(=O)Nc3ccc(Cl)c(C(F)(F)F)c3)cc2)ccn1)NO` [Compound 12, 1-(4-chloro-3-(trifluoromethyl)phenyl)-3-(4-(2-(8-(hydroxyamino)-8-oxooctanamido)pyridin-4-yloxy)phenyl)urea], the negative logarithm of the IC50 (pIC50) is 6.00 to 7.00 in the experiment with HDAC; over 7.00 at PDGFRβ; over 7.00 at cKit; over 7.00 at VEGFR2; over 7.00 on C-Raf.

In general, pIC50 refers to −log10 of the IC50, conventionally taken in molar units.
